Results taken from PubChem BioAssay AID1963846 (Molecular Pharmacology Branch, DTP, NCI, 2024).

Test system: 454973-116-R2-J3-PDC complex spheroid viability
Experiment: Anticancer human tumor 454973-116-R2-J3-PDC patient-derived pancreatic carcinoma cell line growth inhibition [POLQ]
Conditions: for IC50: curve of first compound; for viability, T/C: stronger effect = lower value
Outline: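 Three-cell-type spheroids modelling solid tumor plus stroma served as the readout system; POL inhibitors were tested individually and in combination, concentration ranges set by clinical Cmax where known.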
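Further: spheroids exposed to drugs for seven days before measurement.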
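Wherever viability, T/C is given: percent viability relative to DMSO vehicle control wells taken as 100%.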

Work on `COc1cccc(OCCCN)c1-c1cc(Nc2cnc(C#N)cn2)n[nH]1` + Cc1cccc(N(C)C(=O)C2C(O)CCN2c2nc(C)cc(C(F)(F)F)c2C#N)c1 yielded an IC50 (second compound 0.0316 µM) of 17.8 nM, an IC50 (second compound 0.1 µM) of 16 nM and an IC50 (second compound 0.316 µM) of 16 nM. The IC50 (second compound 1 µM) was 13.4 nM, the IC50 (second compound 3.16 µM) was 13.2 nM and the IC50 (second compound 10 µM) was 13.6 nM. The viability, T/C (second compound 0.0316 µM, first compound 0.00316 µM) was 109%, the viability, T/C (second compound 0.0316 µM, first compound 0.01 µM) was 78.1% and the viability, T/C (second compound 0.0316 µM, first compound 0.0316 µM) was 21.9%. The viability, T/C (second compound 0.0316 µM, first compound 0.1 µM) was 7.22%, the viability, T/C (second compound 0.0316 µM, first compound 0.316 µM) was 5.75% and the viability, T/C (second compound 0.0316 µM, first compound 1 µM) was 4.08%. It also gave a viability, T/C (second compound 0.1 µM, first compound 0.00316 µM) of 95%, a viability, T/C (second compound 0.1 µM, first compound 0.01 µM) of 75.2% and a viability, T/C (second compound 0.1 µM, first compound 0.0316 µM) of 13.4%. For the same molecule, the viability, T/C (second compound 0.1 µM, first compound 0.1 µM) was 7.01%, the viability, T/C (second compound 0.1 µM, first compound 0.316 µM) was 6.2% and the viability, T/C (second compound 0.1 µM, first compound 1 µM) was 4.45%. The viability, T/C (second compound 0.316 µM, first compound 0.00316 µM) was 102%, the viability, T/C (second compound 0.316 µM, first compound 0.01 µM) was 77.6% and the viability, T/C (second compound 0.316 µM, first compound 0.0316 µM) was 10%. For the same molecule, the viability, T/C (second compound 0.316 µM, first compound 0.1 µM) was 6.6%, the viability, T/C (second compound 0.316 µM, first compound 0.316 µM) was 5.64% and the viability, T/C (second compound 0.316 µM, first compound 1 µM) was 5.58%. For the same molecule, the viability, T/C (second compound 1 µM, first compound 0.00316 µM) was 104%, the viability, T/C (second compound 1 µM, first compound 0.01 µM) was 64.2% and the viability, T/C (second compound 1 µM, first compound 0.0316 µM) was 8.06%. It also gave a viability, T/C (second compound 1 µM, first compound 0.1 µM) of 5.29%, a viability, T/C (second compound 1 µM, first compound 0.316 µM) of 5.1% and a viability, T/C (second compound 1 µM, first compound 1 µM) of 4.45%. For the same molecule, the viability, T/C (second compound 3.16 µM, first compound 0.00316 µM) was 112%, the viability, T/C (second compound 3.16 µM, first compound 0.01 µM) was 63% and the viability, T/C (second compound 3.16 µM, first compound 0.0316 µM) was 9.04%. The viability, T/C (second compound 3.16 µM, first compound 0.1 µM) was 6.82%, the viability, T/C (second compound 3.16 µM, first compound 0.316 µM) was 5.92% and the viability, T/C (second compound 3.16 µM, first compound 1 µM) was 6.01%. The viability, T/C (second compound 10 µM, first compound 0.00316 µM) was 98.6%, the viability, T/C (second compound 10 µM, first compound 0.01 µM) was 64.2% and the viability, T/C (second compound 10 µM, first compound 0.0316 µM) was 11.1%. It also gave a viability, T/C (second compound 10 µM, first compound 0.1 µM) of 5.73%, a viability, T/C (second compound 10 µM, first compound 0.316 µM) of 6.26% and a viability, T/C (second compound 10 µM, first compound 1 µM) of 5.41%.
